Key:
[1] = system: C57B16 female mice; experiment: Pulmonary function (Penh) by whole body plethysmography after graded methacholine challenge in mice treated with EPO and/or bleomycin; assay type: in vivo; settings: treated twice a week for two weeks, i.p., FIG. 1
Protocol: C57B16 female mice between 7 and 12 weeks old weighing approximately 20 grams were treated with varying doses of EPO alone and in combination with bleomycin. Animals were treated twice a week with placebo, EPO alone (5-40 μg/mouse, i.p.), bleomycin alone (0.25-0.75 μg/mouse, i.p.), or EPO and bleomycin in combination. […] At these time points, pulmonary function was measured using a full body plethysmograph (Buxco, Niskayuna, N.Y.). This is a noninvasive method utilizing a clear plastic animal chamber fitted with two pneumotachs and a transducer which interface with a computer. Pulmonary resistance and dynamic compliance is evaluated by an analyzer which measures flow and pressure readings at equivalent lung volumes during inspiration and expiration (“Iso-Volumetric Method”). Artifacts from animal movement or atypical breaths (e.g. from “sniffing”) are ignored by computer analysis using parameters that can be adjusted as appropriate for the tidal volume and inspiratory time of the individual animal. The method of whole body plethysmography has been studied and found to be a valid index of pulmonary function in the mouse (Hamelmann et al., Am. J. Respir. Crit. Care Med. 156)3 Pt1) 776-75 (1997). […] A similar pattern of the Penh values was observed when pulmonary functions were performed at four weeks of treatment (see FIG. 2).

[2] = doses of up to 1,500 Units/kg for three to four weeks; cited from earlier work

Row | Substance | worsening in Penh values compared with control animals ([1]; graded (0 to 48 mg/ml) methacholine challenge) [fold] | pulmonary function (Penh), EPO given in the absence of bleomycin ([1]; graded methacholine challenge) | toxic effects due to EPO itself [2]
1 | bleomycin [reference compound] | 2.6 | – | –
2 | erythropoietin [EPO] | – | slight enhancement of pulmonary function | without toxic effects
